System: 843782-103-R-J1-PDC complex spheroid viability
Experiment: Anticancer human tumor 843782-103-R-J1-PDC patient-derived lung adenocarcinoma cell line growth inhibition [RAS]
Settings: for viability, T/C: stronger effect = lower value
Outline: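 Agents were tested in combination matrices in half-log decrements from a top concentration at or near clinical Cmax (10 microM if undetermined). Targets were multi-cell spheroids of tumour lines plus HUVEC and MSC stromal cells.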
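Note: viability read after seven days of compound exposure.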

## CC1(O)CCCC1n1c(=O)c(C(F)F)cc2cnc(NC3CCN(S(C)(=O)=O)CC3)nc21 (stereo unspecified) + C=CC(=O)N1CCN(c2nc(OCC3CCCN3C)nc3c(F)c(-c4nc(N)cc(C)c4C(F)(F)F)c(Cl)cc23)C(C)C1
Curve of first compound, second compound 0.00316 µM
  IC50: 0.147 µM
Curve of first compound, second compound 0.01 µM
  IC50: 0.152 µM
Curve of first compound, second compound 0.0316 µM
  IC50: 0.0964 µM
Curve of first compound, second compound 0.1 µM
  IC50: 0.126 µM
Curve of first compound, second compound 0.316 µM
  IC50: 0.14 µM
Curve of first compound, second compound 1 µM
  IC50: 0.138 µM
Second compound 0.00316 µM, first compound 0.0316 µM
  viability, T/C: 84.9%
Second compound 0.00316 µM, first compound 0.1 µM
  viability, T/C: 61.6%
Second compound 0.00316 µM, first compound 0.316 µM
  viability, T/C: 27.7%
Second compound 0.00316 µM, first compound 1 µM
  viability, T/C: 24.3%
Second compound 0.00316 µM, first compound 3.16 µM
  viability, T/C: 24.2%
Second compound 0.00316 µM, first compound 10 µM
  viability, T/C: 2.56%
Second compound 0.01 µM, first compound 0.0316 µM
  viability, T/C: 81.2%
Second compound 0.01 µM, first compound 0.1 µM
  viability, T/C: 61.4%
Second compound 0.01 µM, first compound 0.316 µM
  viability, T/C: 28.2%
Second compound 0.01 µM, first compound 1 µM
  viability, T/C: 29.2%
Second compound 0.01 µM, first compound 3.16 µM
  viability, T/C: 21.7%
Second compound 0.01 µM, first compound 10 µM
  viability, T/C: 3.18%
Second compound 0.0316 µM, first compound 0.0316 µM
  viability, T/C: 75.9%
Second compound 0.0316 µM, first compound 0.1 µM
  viability, T/C: 49.9%
Second compound 0.0316 µM, first compound 0.316 µM
  viability, T/C: 24%
Second compound 0.0316 µM, first compound 1 µM
  viability, T/C: 27.5%
Second compound 0.0316 µM, first compound 3.16 µM
  viability, T/C: 19.6%
Second compound 0.0316 µM, first compound 10 µM
  viability, T/C: 2.81%
Second compound 0.1 µM, first compound 0.0316 µM
  viability, T/C: 78.7%
Second compound 0.1 µM, first compound 0.1 µM
  viability, T/C: 59.2%
Second compound 0.1 µM, first compound 0.316 µM
  viability, T/C: 24.4%
Second compound 0.1 µM, first compound 1 µM
  viability, T/C: 27.2%
Second compound 0.1 µM, first compound 3.16 µM
  viability, T/C: 23%
Second compound 0.1 µM, first compound 10 µM
  viability, T/C: 2.61%
Second compound 0.316 µM, first compound 0.0316 µM
  viability, T/C: 86%
Second compound 0.316 µM, first compound 0.1 µM
  viability, T/C: 58.8%
Second compound 0.316 µM, first compound 0.316 µM
  viability, T/C: 26.2%
Second compound 0.316 µM, first compound 1 µM
  viability, T/C: 28.5%
Second compound 0.316 µM, first compound 3.16 µM
  viability, T/C: 25.2%
Second compound 0.316 µM, first compound 10 µM
  viability, T/C: 2.69%
Second compound 1 µM, first compound 0.0316 µM
  viability, T/C: 84.1%
Second compound 1 µM, first compound 0.1 µM
  viability, T/C: 54.1%
Second compound 1 µM, first compound 0.316 µM
  viability, T/C: 33.1%
Second compound 1 µM, first compound 1 µM
  viability, T/C: 25.1%
Second compound 1 µM, first compound 3.16 µM
  viability, T/C: 17.2%
Second compound 1 µM, first compound 10 µM
  viability, T/C: 2.07%

## C=CC(=O)N1CCN(c2nc(OCC3CCCN3C)nc3c(F)c(-c4nc(N)cc(C)c4C(F)(F)F)c(Cl)cc23)C(C)C1 (stereo unspecified) + CCn1c(-c2cc(N3CCN(C)CC3)cnc2C(C)OC)c2c3cc(ccc31)-c1csc(n1)CC(NC(=O)C1CC1C)C(=O)N1CCCC(N1)C(=O)OCC(C)(C)C2
Curve of first compound, second compound 0.000949 µM
  IC50: > 1 µM
Curve of first compound, second compound 0.003 µM
  IC50: > 1 µM
Curve of first compound, second compound 0.00949 µM
  IC50: < 0.00316 µM
Curve of first compound, second compound 0.03 µM
  IC50: < 0.00316 µM
Curve of first compound, second compound 0.0949 µM
  IC50: < 0.00316 µM
Curve of first compound, second compound 0.3 µM
  IC50: < 0.00316 µM
Second compound 0.000949 µM, first compound 0.00316 µM
  viability, T/C: 64.2%
Second compound 0.000949 µM, first compound 0.01 µM
  viability, T/C: 64.9%
Second compound 0.000949 µM, first compound 0.0316 µM
  viability, T/C: 62.9%
Second compound 0.000949 µM, first compound 0.1 µM
  viability, T/C: 66.8%
Second compound 0.000949 µM, first compound 0.316 µM
  viability, T/C: 71.8%
Second compound 0.000949 µM, first compound 1 µM
  viability, T/C: 67.1%
Second compound 0.003 µM, first compound 0.00316 µM
  viability, T/C: 57.2%
Second compound 0.003 µM, first compound 0.01 µM
  viability, T/C: 56.5%
Second compound 0.003 µM, first compound 0.0316 µM
  viability, T/C: 55%
Second compound 0.003 µM, first compound 0.1 µM
  viability, T/C: 55.4%
Second compound 0.003 µM, first compound 0.316 µM
  viability, T/C: 55.2%
Second compound 0.003 µM, first compound 1 µM
  viability, T/C: 60.8%
Second compound 0.00949 µM, first compound 0.00316 µM
  viability, T/C: 33.6%
Second compound 0.00949 µM, first compound 0.01 µM
  viability, T/C: 38.1%
Second compound 0.00949 µM, first compound 0.0316 µM
  viability, T/C: 36.3%
Second compound 0.00949 µM, first compound 0.1 µM
  viability, T/C: 37.1%
Second compound 0.00949 µM, first compound 0.316 µM
  viability, T/C: 37%
Second compound 0.00949 µM, first compound 1 µM
  viability, T/C: 35.8%
Second compound 0.03 µM, first compound 0.00316 µM
  viability, T/C: 20.3%
Second compound 0.03 µM, first compound 0.01 µM
  viability, T/C: 23.1%
Second compound 0.03 µM, first compound 0.0316 µM
  viability, T/C: 19.3%
Second compound 0.03 µM, first compound 0.1 µM
  viability, T/C: 23.8%
Second compound 0.03 µM, first compound 0.316 µM
  viability, T/C: 22.7%
Second compound 0.03 µM, first compound 1 µM
  viability, T/C: 21.6%
Second compound 0.0949 µM, first compound 0.00316 µM
  viability, T/C: 15.4%
Second compound 0.0949 µM, first compound 0.01 µM
  viability, T/C: 13.7%
Second compound 0.0949 µM, first compound 0.0316 µM
  viability, T/C: 16.6%
Second compound 0.0949 µM, first compound 0.1 µM
  viability, T/C: 20%
Second compound 0.0949 µM, first compound 0.316 µM
  viability, T/C: 17.4%
Second compound 0.0949 µM, first compound 1 µM
  viability, T/C: 16.4%
Second compound 0.3 µM, first compound 0.00316 µM
  viability, T/C: 14.6%
Second compound 0.3 µM, first compound 0.01 µM
  viability, T/C: 14.5%
Second compound 0.3 µM, first compound 0.0316 µM
  viability, T/C: 14.8%
Second compound 0.3 µM, first compound 0.1 µM
  viability, T/C: 14.9%
Second compound 0.3 µM, first compound 0.316 µM
  viability, T/C: 14.5%
Second compound 0.3 µM, first compound 1 µM
  viability, T/C: 13.4%

## CCn1c(-c2cccnc2C(C)OC)c2c3cc(ccc31)N1CCOC(CC(NC(=O)C(C(C)C)N(C)C(=O)C3(F)CCN(C(=O)C#CC(C)(C)N(C)C)CC3)C(=O)N3CCCC(N3)C(=O)OCC(C)(C)C2)C1 (stereo unspecified)
Compound 0.000949 µM
  viability, T/C: 82.9% [middle of 8 runs]
Compound 0.003 µM
  viability, T/C: 80.1% [middle of 8 runs]
Compound 0.00949 µM
  viability, T/C: 79.1% [middle of 8 runs]
Compound 0.03 µM
  viability, T/C: 75.8% [middle of 8 runs]
Compound 0.0949 µM
  viability, T/C: 68.4% [middle of 8 runs]
Compound 0.3 µM
  viability, T/C: 67.3% [middle of 8 runs]
Compound alone, run of 08/20/2024
  IC50: > 0.3 µM

From PubChem BioAssay AID2060883 (Molecular Pharmacology Branch, DTP, NCI, 2025)
